# Patent US12690589B2, “Herbicidal compositions comprising pyroxasulfone” (BASF SE, priority 2024, dated 2026)
# Key:
# Assay in all cases: Post-emergence application in field trials, herbicidal activity (damage scale 0 to 100%)
# Assay type in all cases: in vivo
# Zea mays (ZEAMX) = system: Zea mays (ZEAMX)
# Summary of the method: (§1)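 Field sites with natural or seeded weeds were sprayed post-emergence via flat fan nozzles in 200 l/ha water plus 0.25 v/v % MSO adjuvant, solo or mixed with pyroxasulfone and other partners. Damage was scored 0–100% versus untreated plants at indicated DAT. Colby expected values were used to judge synergy.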
# Hordeum vulgare (HORVW) = conditions: stage 23-29, height 20-25 cm
# Summary of the method: as §1
# [1] = system: Digitaria sanguinalis (DIGSA); conditions: stage 22, height 10-15 cm
# Summary of the method: as §1
# [2] = system: Setaria verticillata (SETVE); conditions: stage 21-23, height 8-16 cm
# Summary of the method: as §1
# [3] = system: Echinochloa crus-galli (ECHCG); conditions: stage 23-30, height 15-20 cm
# Method: In the examples below, using the method of S. R. Colby (1967) “Calculating synergistic and antagonistic responses of herbicide combinations”, Weeds 15, p. 22ff., the value E, which is expected if the activity of the individual active compounds is only additive, was calculated:
# [formula] • wherein • X=percent activity using active herbicide A at an application rate a; • Y=percent activity using active herbicide B (e.g. pyroxasulfone) at an application rate b; • E=expected activity (in %) by A+B at application rates a+b.
# If the value found experimentally is higher than the value E calculated according to Colby, a synergistic effect is present.
# On field test sites, natural weed infestation or seeded weeds were treated post-emergence of the weeds.
# In the field trials, the weeds were treated as indicated below.
# In the following experiments, the herbicidal activity for the individual herbicidal compositions (solo and mixture applications) was assessed at the indicated days after treatment (DAT). The assessments for the damage on undesired weeds caused by the composition was carried out using a scale from 0 to 100%, compared to the untreated control plants. Here, 0 means no damage and 100 means complete destruction of the plants.
# Herbicide A-1 (50 g/l) and pyroxasulfone (85% WG) were, together with addition of 0.5% MSO (methylated seed oil) as adjuvant, formulated in water as distribution medium (water volume 200 l/ha) and sprayed with commercial flat fan nozzles.
# [4] = 7 DAT, g ai/ha A-1 12.5, B 70, C-12 252
# [5] = 7 DAT, g ai/ha A-1 18, B 70, C-12 252
# [6] = 7 DAT, g ai/ha A-1 18, B 90, C-12 252
# [7] = 21 DAT, g ai/ha A-1 12.5, B 70, C-12 252
# [8] = 21 DAT, g ai/ha A-1 18, B 70, C-12 252
# [9] = 21 DAT, g ai/ha A-1 18, B 90, C-12 252
# [10] = 28 DAT, g ai/ha A-1 12.5, B 70, C-12 252
# [11] = 42 DAT, g ai/ha A-1 18, B 90, C-12 252
# [12] = Table 8.1, 7 DAT, g ai/ha A-1 18, B 70, C-12 1066
# [13] = Table 8.2, 21 DAT, g ai/ha A-1 18, B 70, C-12 1066
smiles,measurement,setting,value
"CP(=O)(O)CC[C@H](N)C(=O)O.N [C-12, glufosinate-P-ammonium]",% Herbicidal activity,"Zea mays (ZEAMX); 7 DAT, stage 15-16, height 27-33 cm, g ai/ha A-1 12.5, B 70, C-12 252",70%
same,% Herbicidal activity,"Zea mays (ZEAMX); 7 DAT, stage 15-16, height 27-33 cm, g ai/ha A-1 18, B 70, C-12 252",70%
same,% Herbicidal activity,"Zea mays (ZEAMX); 7 DAT, stage 15-16, height 27-33 cm, g ai/ha A-1 18, B 90, C-12 252",70%
same,% Herbicidal activity,"Zea mays (ZEAMX); 21 DAT, stage 15-16, height 27-33 cm, g ai/ha A-1 12.5, B 70, C-12 252",60%
same,% Herbicidal activity,"Zea mays (ZEAMX); 21 DAT, stage 15-16, height 27-33 cm, g ai/ha A-1 18, B 70, C-12 252",60%
same,% Herbicidal activity,"Zea mays (ZEAMX); 21 DAT, stage 15-16, height 27-33 cm, g ai/ha A-1 18, B 90, C-12 252",60%
same,% Herbicidal activity,"Zea mays (ZEAMX); 42 DAT, stage 15-16, height 27-33 cm, g ai/ha A-1 12.5, B 70, C-12 252",45%
same,% Herbicidal activity,"Zea mays (ZEAMX); 42 DAT, stage 15-16, height 27-33 cm, g ai/ha A-1 18, B 70, C-12 252",45%
same,% Herbicidal activity,"Zea mays (ZEAMX); 42 DAT, stage 15-16, height 27-33 cm, g ai/ha A-1 18, B 90, C-12 252",45%
same,% Herbicidal activity,"Zea mays (ZEAMX); Table 8.1, 7 DAT, stage 15-16, height 50-60 cm, g ai/ha A-1 18, B 70, C-12 1066",7%
same,% Herbicidal activity,"Zea mays (ZEAMX); Table 8.1, 7 DAT, stage 15-16, height 50-60 cm, g ai/ha A-1 18, B 90, C-12 1066",7%
same,% Herbicidal activity,Hordeum vulgare (HORVW); [4],40%
same,% Herbicidal activity,Hordeum vulgare (HORVW); [5],40%
same,% Herbicidal activity,Hordeum vulgare (HORVW); [6],40%
same,% Herbicidal activity,Hordeum vulgare (HORVW); [7],30%
same,% Herbicidal activity,Hordeum vulgare (HORVW); [8],30%
same,% Herbicidal activity,Hordeum vulgare (HORVW); [9],30%
same,% Herbicidal activity,Hordeum vulgare (HORVW); [10],30%
same,% Herbicidal activity,"Hordeum vulgare (HORVW); 28 DAT, g ai/ha A-1 18, B 70, C-12 252",30%
same,% Herbicidal activity,"Hordeum vulgare (HORVW); 28 DAT, g ai/ha A-1 18, B 90, C-12 252",30%
same,% Herbicidal activity,[1]; [5],70%
same,% Herbicidal activity,[1]; [6],70%
same,% Herbicidal activity,[1]; [8],70%
same,% Herbicidal activity,[1]; [9],70%
same,% Herbicidal activity,"[1]; 42 DAT, g ai/ha A-1 18, B 70, C-12 252",55%
same,% Herbicidal activity,[1]; [11],55%
same,% Herbicidal activity,[1]; [12],20%
same,% Herbicidal activity,[1]; [13],20%
same,% Herbicidal activity,"[1]; Table 8.4, 42 DAT, g ai/ha A-1 18, B 70, C-12 1066",10%
same,% Herbicidal activity,[2]; [5],65%
same,% Herbicidal activity,[2]; [6],65%
same,% Herbicidal activity,[2]; [9],65%
same,% Herbicidal activity,"[2]; 42 DAT, g ai/ha A-1 12.5, B 70, C-12 252",35%
same,% Herbicidal activity,[2]; [11],35%
same,% Herbicidal activity,[2]; [12],25%
same,% Herbicidal activity,"[2]; Table 8.2, 21 DAT, g ai/ha A-1 12.5, B 70, C-12 1066",25%
same,% Herbicidal activity,"[2]; Table 8.4, 42 DAT, g ai/ha A-1 12.5, B 70, C-12 1066",15%
same,% Herbicidal activity,[3]; [4],70%
same,% Herbicidal activity,[3]; [7],60%
same,% Herbicidal activity,[3]; [10],60%
same,% Herbicidal activity,[3]; [13],10%
same,% Herbicidal activity,"[3]; Table 8.2, 21 DAT, g ai/ha A-1 18, B 90, C-12 1066",10%
same,% Herbicidal activity,"[3]; Table 8.3, 28 DAT, g ai/ha A-1 18, B 70, C-12 1066",10%
same,% Herbicidal activity,"[3]; Table 8.3, 28 DAT, g ai/ha A-1 18, B 90, C-12 1066",10%
